26 molecules from US8912179B2, “Heterocyclyl compounds as histamine H3 receptor ligands” (Suven Life Sciences Limited, priority 2010, dated 2014) can be followed below.

Molecules are shown by their SMILES. Counter-ions that a name gives are not always drawn.

In the first series the target is Histamine H3 receptor (UniProt Q9Y5N1). Briefly: Binding assay for human or rat histamine H3 receptor ([3H] R-α-methylhistamine). The note with it: [3H] R-α-methylhistamine 3.0 nM; rat brain frontal cortex or recombinant human receptor in CHO cells (not specified which). The procedure: Compounds can be evaluated according to the following procedures.
• Receptor source: Rat brain frontal cortex or recombinant human cDNA expressed in CHO cells • Radioligand: [^3H] R-α-methylhistamine • Final ligand concentration—[3.0 nM] • Non-specific determinant: R-α-methylhistamine (100 uM) • Reference compound: R-α-methylhistamine • Positive control: R-α-methylhistamine Incubation Conditions:
Increasing concentrations of test compounds or standard were incubated with membrane receptors and radioligand in 5 mM MgCl2 and 50 mM TRIS-HCl (pH 7.4) for 60 minutes at room temperature. The reaction was terminated by rapid vacuum filtration onto the glass fiber filters. Radioactivity trapped onto the filters was determined and compared to the control values in order to ascertain any interactions of the test compound(s) with either cloned human or rat receptor binding site.
For orientation: Ki means a dissociation constant, usually derived from enzyme kinetics or from competition with a known ligand. Consider `O=C(C1CC1)N1CCc2nc(OC3CCC(C4CCC4)CC3)sc2CC1` (stereo not drawn) [Example 2, [2-(4-Cyclobutyl-cyclohexyloxy)-4,5,7,8-tetrahydro-thiazolo[5,4-d]azepin-6-yl]-cyclopropyl-methanone tartrate], for which the inhibition constant Ki is 0.002 µM.
As to `CCC(=O)NC1CCc2nc(OC3CCN(C4CCC4)CC3)sc2C1` (stereo not drawn) [Example 3, N-[2-(1-Cyclobutyl-piperidin-4-yloxy)-4,5,6,7-tetrahydro-benzothiazol-6-yl]-propionamide], the Ki is 0.0267 µM.
Same read-out and setting: as for `O=C(c1ccccc1F)N1CCc2nc(OC3CCN(C4CCC4)CC3)sc2C1` [Example 6, [2-(1-Cyclobutyl-piperidin-4-yloxy)-6,7-dihydro-4H-thiazolo[5,4-c]pyridin-5-yl]-(2-fluoro-phenyl)-methanone tartrate], the figure is 0.0134 µM.
Consider `CC(C)CC(=O)N1CCc2nc(OC3CCN(C4CCC4)CC3)sc2C1` [Example 7, 1-[2-(1-Cyclobutyl-piperidin-4-yloxy)-6,7-dihydro-4H-thiazolo[5,4-c]pyridin-5-yl]-3-methyl-butan-1-one tartrate], for which the Ki was 0.0105 µM.
Still for that read-out and setting: as for `CC(C)N1CCC(Oc2nc3c(s2)CN(C(=O)C2CCC2)CC3)CC1` [Example 8, Cyclobutyl-[2-(1-isopropyl-piperidin-4-yloxy)-6,7-dihydro-4H-thiazolo[5,4-c]pyridin-5-yl]-methanone], the figure is 0.00769 µM; as for `CC(C)N1CCC(Oc2nc3c(s2)CN(C(=O)C2CC2)CC3)CC1` [Example 9, Cyclopropyl-[2-(1-isopropyl-piperidin-4-yloxy)-6,7-dihydro-4H-thiazolo[5,4-c]pyridin-5-yl]-methanone tartrate], 0.00994 µM.
The same measure, in the same setting: as for `O=C(C1CC1)N1CCc2nc(OC3CCN(C4CC4)CC3)sc2C1` [Example 10, Cyclopropyl-[2-(1-cyclopropyl-piperidin-4-yloxy)-6,7-dihydro-4H-thiazolo[5,4-c]pyridin-5-yl]-methanone tartrate], the figure is 0.00543 µM.
On the same count and under the same terms, as for `O=C(C1CCC1)N1CCc2nc(OC3CCN(C4CC4)CC3)sc2C1` [Example 11, Cyclobutyl-[2-(1-cyclopropyl-piperidin-4-yloxy)-6,7-dihydro-4H-thiazolo[5,4-c]pyridin-5-yl]-methanone tartrate], the figure is 0.012 µM; as for `O=C(CN1CCOCC1)N1CCc2nc(OC3CCN(C4CCC4)CC3)sc2C1.O=C(O)C(O)C(O)C(=O)O` [Example 12, 1-[2-(1-Cyclobutyl-piperidin-4-yloxy)-6,7-dihydro-4H-thiazolo[5,4-c]pyridin-5-yl]-2-morpholin-4-yl-ethanone tartrate], 0.00844 µM; as for `O=C(C1CC1)N1CCCC(Oc2nc3c(s2)CN(C2CCC2)CC3)C1` (stereo not drawn) [Example 14, [3-(5-Cyclobutyl-,6,7-dihydro-4H-thiazolo[5,4-c]pyridin-2-yloxy)-piperidin-1-yl]-cyclopropyl-methanone tartrate], 0.0236 µM.
As for `O=C(c1ccncc1)N1CCc2nc(OC3CCN(C4CCC4)CC3)sc2C1` [Example 16, [2-(1-Cyclobutyl-piperidin-4-yloxy)-6,7-dihydro-4H-thiazolo[5,4-c]pyridin-5-yl]-pyridin-4-yl-methanone tartrate], the Ki was 0.0335 µM.
Regarding `COc1ccc(C(=O)N2CCc3nc(OC4CCN(C5CCC5)CC4)sc3C2)cc1` [Example 17, [2-(1-Cyclobutyl-piperidin-4-yloxy)-6,7-dihydro-4H-thiazolo[5,4-c]pyridin-5-yl]-(4-methoxy-phenyl)-methanone tartrate], the Ki is 0.0212 µM.
On the same count and under the same terms, as for `O=C(CN1CCCCC1)N1CCc2nc(OC3CCN(C4CCC4)CC3)sc2C1` [Example 18, 1-[2-(1-Cyclobutyl-piperidin-4-yloxy)-6,7-dihydro-4H-thiazolo[5,4-c]pyridin-5-yl]-2-piperidin-1-yl-ethanone tartrate], the figure is 0.00696 µM; as for `O=C(CC1CC1)N1CCc2nc(OC3CCN(C4CCC4)CC3)sc2C1` [Example 19, 1-[2-(1-Cyclobutyl-piperidin-4-yloxy)-6,7-dihydro-4H-thiazolo[5,4-c]pyridin-5-yl]-2-cyclopropyl-ethanone], 0.0123 µM; as for `O=S(=O)(c1ccccc1F)N1CCc2nc(OC3CCN(C4CCC4)CC3)sc2C1` [Example 20, 2-(1-Cyclobutyl-piperidin-4-yloxy)-5-(2-fluoro-benzenesulfonyl)-,6,7-dihydro-4H-thiazolo[5,4-c]pyridine tartrate], 0.0074 µM.
With `CS(=O)(=O)N1CCc2nc(OC3CCN(C4CCC4)CC3)sc2C1` [Example 21, 2-(1-Cyclobutyl-piperidin-4-yloxy)-5-methanesulfonyl-,6,7-dihydro-4H-thiazolo[5,4-c]pyridine], the Ki was found to be 0.0226 µM.
Still for that read-out and setting: as for `FC(F)(F)c1ccc(N2CCc3nc(OC4CCN(C5CCC5)CC4)sc3C2)cn1` [Example 23, 2-(1-Cyclobutyl-piperidin-4-yloxy)-5-(2-trifluoromethyl-pyridin-5-yl)-,6,7-dihydro-4H-thiazolo[5,4-c]pyridine], the figure is 0.0003 µM.
Same read-out and setting: as for `O=C(c1ccc(C(F)(F)F)nc1)N1CCc2nc(OC3CCN(C4CCC4)CC3)sc2C1` [Example 25, [2-(1-Cyclobutyl-piperidin-4-yloxy)-6,7-dihydro-4H-thiazolo[5,4-c]pyridin-5-yl]-(2-trifluoromethyl-pyridin-5-yl)-methanone], the figure is 0.0353 µM; as for `O=C(c1cccnc1)N1CCc2nc(OC3CCN(C4CCC4)CC3)sc2C1` [Example 26, [2-(1-Cyclobutyl-piperidin-4-yloxy)-6,7-dihydro-4H-thiazolo[5,4-c]pyridin-5-yl]-pyridin-3-yl-methanone tartrate], 0.0325 µM.
For `c1cncc(N2CCc3nc(OC4CCN(C5CCC5)CC4)sc3C2)c1` [Example 27, 2-(1-Cyclobutyl-piperidin-4-yloxy)-5-pyridin-3-yl-,6,7-dihydro-4H-thiazolo[5,4-c]pyridine tartrate], the Ki stood at 0.00075 µM.
On to `O=C(N1CCOCC1)N1CCc2nc(OC3CCN(C4CCC4)CC3)sc2C1` [Example 29, [2-(1-Cyclobutyl-piperidin-4-yloxy)-6,7-dihydro-4H-thiazolo[5,4-c]pyridin-5-yl]-morpholin-4-yl-methanone tartrate], for which the Ki worked out at 0.0113 µM.
Turning to `O=C(N1CCCCC1)N1CCc2nc(OC3CCN(C4CCC4)CC3)sc2C1` [Example 30, [2-(1-Cyclobutyl-piperidin-4-yloxy)-6,7-dihydro-4H-thiazolo[5,4-c]pyridin-5-yl]-piperidin-1-yl-methanone hydrochloride], the Ki worked out at 0.00419 µM.
In the case of `NC(=O)c1ccc(N2CCc3nc(OC4CCN(C5CCC5)CC4)sc3C2)nc1` [Example 31, 6-[2-(1-Cyclobutyl-piperidin-4-yloxy)-6,7-dihydro-4H-thiazolo[5,4-c]pyridin-5-yl]-nicotinamide], the Ki worked out at 0.00162 µM.
The same measure, in the same setting: as for `O=C(C1CCCC1)N1CCc2nc(OC3CCN(C4CCC4)CC3)sc2C1` [Example 32, [2-(1-Cyclobutyl-piperidin-4-yloxy)-6,7-dihydro-4H-thiazolo[5,4-c]pyridin-5-yl]-cyclopentyl-methanone tartrate], the figure is 0.0046 µM.
Same read-out and setting: the same measure for `O=C(C1CC1)N1CCCc2nc(OC3CCN(C4CCC4)CC3)sc21` [Example 33, [2-(1-Cyclobutyl-piperidin-4-yloxy)-6,7-dihydro-5H-thiazolo[5,4-b]pyridin-4-yl]-cyclopropyl-methanone tartrate]: 0.0154 µM; for `CC(C)N1CCC(Oc2nc3c(s2)CCN(C(=O)C2CC2)CC3)CC1` [Example 34, Cyclopropyl-[2-(1-isopropyl-piperidin-4-yloxy)-4,5,7,8-tetrahydro-thiazolo[5,4-d]azepin-6-yl]-methanone tartrate]: 0.0156 µM.

Tested on in a further series: not listed separately
As to the kind of experiment: Rodent pharmacokinetic study. The series is classed as in vivo, Male Wistar rats. The note with it: whole blood; Wistar male rat, intravenous, 1 mg/kg, water, blood. The procedure:
Male Wistar rats (230-280 grams) obtained from NIN (National Institute of Nutrition, Hyderabad, India) were used as an experimental animal. Three animals were housed in each cage. Animals were kept fasted over night and maintained on a 12 hours light/dark cycle. Three rats were dosed New chemical entity (NCE) orally (3 or 10 mg/kg) and intravenously (1 or 5 mg/kg) on day 0 and day 2.
At each time point blood was collected by jugular vein. Blood was stored at 2-8° C. until analysis. The concentrations of the NCE compound in blood were determined using LC-MS/MS method. Schedule time points: Pre dose 0.08, 0.25, 0.5, 1, 2, 4, 6, 8 and 24 hours after dosing (n=3). The NCE compounds were quantified in blood by partially validated LC-MS/MS method using acetonitrile precipitation technique. NCE compounds were quantified in the calibration range of 1-2000 ng/mL in blood. Study samples were analyzed using calibration samples in the batch and quality control samples spread across the batch.
Pharmacokinetic parameters were calculated by non-compartmental model using software WinNonlin version 5.0.1.
Usually AUC(0-t) stands for exposure summed from dosing to a finite time, without extrapolation to infinity. A lower AUC(0-t) goes with low exposure. The term Cmax denotes the maximum level reached in the sampled fluid or tissue. What is called Tmax is the time from dosing to the highest level. By half-life is commonly meant the time needed for the level to fall by half in the phase considered. A high value points to slow decline. Turning to `O=C(CN1CCOCC1)N1CCc2nc(OC3CCN(C4CCC4)CC3)sc2C1.O=C(O)C(O)C(O)C(=O)O` [Example 12, 1-[2-(1-Cyclobutyl-piperidin-4-yloxy)-6,7-dihydro-4H-thiazolo[5,4-c]pyridin-5-yl]-2-morpholin-4-yl-ethanone tartrate], the AUC(0-t) was 334 ± 39 ng·h/mL, the Cmax is 237 ± 38 ng/mL, the Tmax was determined as 0.08 h and the half-life is 2.86 ± 0.82 h.

Still in this series, the particulars now being: whole blood; Wistar male rat, per oral 3 mg/kg vs intravenous 1 mg/kg.
As a reminder, the bioavailability is dose-corrected exposure relative to a reference, in per cent. Read a low bioavailability as poor availability. Consider `O=C(CN1CCOCC1)N1CCc2nc(OC3CCN(C4CCC4)CC3)sc2C1.O=C(O)C(O)C(O)C(=O)O` [Example 12, 1-[2-(1-Cyclobutyl-piperidin-4-yloxy)-6,7-dihydro-4H-thiazolo[5,4-c]pyridin-5-yl]-2-morpholin-4-yl-ethanone tartrate], for which the bioavailability is 43 ± 17%.

The series is the same for the next values; noted with them: whole blood; Wistar male rat, per oral, 3 mg/kg, water, blood.
In the case of `O=C(CN1CCOCC1)N1CCc2nc(OC3CCN(C4CCC4)CC3)sc2C1.O=C(O)C(O)C(O)C(=O)O` [Example 12, 1-[2-(1-Cyclobutyl-piperidin-4-yloxy)-6,7-dihydro-4H-thiazolo[5,4-c]pyridin-5-yl]-2-morpholin-4-yl-ethanone tartrate], the AUC(0-t) was 417 ± 120 ng·h/mL, the highest level (Cmax) was 151 ± 18 ng/mL, the Tmax was 0.83 ± 0.29 h and the half-life was 2.85 ± 0.38 h.

The subject of another series is rats. As to the kind of experiment: Morris water maze, reversal of scopolamine induced amnesia. It counts as in vivo, rat. The note with it: p.o., dose giving reversal. The procedure:
The cognition-enhancing properties of compounds of this invention were estimated by using this model.
The water maze apparatus consisted of a circular pool (1.8 m diameter, 0.6 m high) constructed in black Perspex (TSE systems, Germany) filled with water (24±2° C.) and positioned underneath a wide-angled video camera to track animal. The 10 cm^2 perspex platform, lying 1 cm below the water surface, was placed in the centre of one of the four imaginary quadrants, which remained constant for all rats. The black Perspex used in the construction of the maze and platform offered no intramaze cues to guide escape behavior. By contrast, the training room offered several strong extramaze visual cues to aid the formation of the spatial map necessary for escape learning. An automated tracking system, [Videomot 2 (5.51), TSE systems, Germany] was employed. This program analyzes video images acquired via a digital camera and an image acquisition boards that determined path length, swim speed and the number of entries and duration of swim time spent in each quadrant of the water maze.
Consider `O=C(CN1CCOCC1)N1CCc2nc(OC3CCN(C4CCC4)CC3)sc2C1.O=C(O)C(O)C(O)C(=O)O` [Example 12, 1-[2-(1-Cyclobutyl-piperidin-4-yloxy)-6,7-dihydro-4H-thiazolo[5,4-c]pyridin-5-yl]-2-morpholin-4-yl-ethanone tartrate], for which the “Reversal of Scopolamine Induced amnesia” value was “≧20 mg/kg, p.o”.
